Experimental data taken from ChEMBL document CHEMBL1153641, “Diaminocyclobutenediones as potent and orally bioavailable CXCR2 receptor antagonists: SAR in the phenolic amide region” (Bioorg Med Chem Lett, 2009).

Key:
[1] = AUC in rat at 10 mg/kg, po; format: ADME, organism-based; design: dose 10 mg/kg, route oral; details: plasma
[2] = target: T1, C-X-C chemokine receptor type 2 (Homo sapiens, UniProt P25025)
T1 sequence (P25025 whole entry): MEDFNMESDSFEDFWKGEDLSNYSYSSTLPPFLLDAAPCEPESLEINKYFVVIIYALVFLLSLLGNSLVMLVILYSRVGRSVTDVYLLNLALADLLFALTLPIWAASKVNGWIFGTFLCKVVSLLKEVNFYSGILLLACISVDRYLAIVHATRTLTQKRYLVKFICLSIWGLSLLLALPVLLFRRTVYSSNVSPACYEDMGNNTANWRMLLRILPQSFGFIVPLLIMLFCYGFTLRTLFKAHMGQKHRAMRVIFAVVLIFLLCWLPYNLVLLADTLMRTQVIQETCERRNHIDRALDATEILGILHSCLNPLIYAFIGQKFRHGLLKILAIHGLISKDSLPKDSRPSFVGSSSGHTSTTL
Description: Displacement of human [125I]IL-8 from human CXCR2

[3] = target: T2, C-X-C chemokine receptor type 1 (Homo sapiens, UniProt P25024)
T2 sequence (P25024 whole entry): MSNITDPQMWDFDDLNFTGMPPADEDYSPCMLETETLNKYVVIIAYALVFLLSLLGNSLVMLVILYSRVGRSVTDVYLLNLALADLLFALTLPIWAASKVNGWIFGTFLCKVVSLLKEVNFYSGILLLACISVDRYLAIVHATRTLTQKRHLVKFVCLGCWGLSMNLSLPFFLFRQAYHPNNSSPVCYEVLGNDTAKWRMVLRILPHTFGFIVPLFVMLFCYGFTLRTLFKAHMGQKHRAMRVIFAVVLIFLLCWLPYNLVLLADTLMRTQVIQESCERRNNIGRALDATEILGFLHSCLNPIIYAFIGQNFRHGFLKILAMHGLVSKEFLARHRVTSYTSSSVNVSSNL
Description: Displacement of human [125I]IL-8 from human CXCR1

| Structure (SMILES) | AUC [1] [µM·h] | Ki [2] [nM] | Ki [3] [nM] |
| --- | --- | --- | --- |
| CC[C@@H](Nc1c(Nc2cccc(C(=O)N(C)C)c2O)c(=O)c1=O)c1ccccc1 | 17.4 | 4.4 | – |
| CC[C@@H](Nc1c(Nc2cccc(C(=O)N(C)C)c2O)c(=O)c1=O)c1cccs1 | 2.5 | 5 | 210 |
| CC[C@@H](Nc1c(Nc2cccc(C(=O)N3CCN(C(=O)c4ccccn4)CC3)c2O)c(=O)c1=O)c1ccccc1 | – | 20 | – |
| CC[C@@H](Nc1c(Nc2ccc(-c3ccccn3)c(C(=O)N(C)C)c2O)c(=O)c1=O)c1ccccc1 | – | 15 | > 1000 |
| CC[C@@H](Nc1c(Nc2cc(-c3ccccc3)cc(C(=O)N(C)C)c2O)c(=O)c1=O)c1ccccc1 | – | > 2000 | – |
| CC[C@@H](Nc1c(Nc2cc(Cl)cc(C(=O)N(C)C)c2O)c(=O)c1=O)c1cccs1 | 2.2 | 50 | 1220 |
| CC[C@@H](Nc1c(Nc2cc(C)cc(C(=O)N(C)C)c2O)c(=O)c1=O)c1cccs1 | – | 76 | 2800 |
| CC[C@@H](Nc1c(Nc2ccccc2O)c(=O)c1=O)c1ccc(C)o1 | – | 22 | – |
| CC[C@H](c1ccccc1)N(C)c1c(Nc2cccc(C(=O)N(C)C)c2O)c(=O)c1=O | – | > 270 | – |
| CC[C@@H](Nc1c(Nc2cccc(C(=O)N3CC[C@H](O)C3)c2O)c(=O)c1=O)c1ccccc1 | – | 18 | 21 |
| CC[C@@H](Nc1c(Nc2cccc(C(=O)N3CC[C@H](CO)C3)c2O)c(=O)c1=O)c1ccccc1 | 0.44 | 20 | – |
| CC[C@@H](Nc1c(Nc2cccc(C(=O)N3CCCC3C(=O)O)c2O)c(=O)c1=O)c1ccccc1 (stereo partly specified) | – | 5 | 30 |
| CC[C@@H](Nc1c(Nc2ccc(Br)c(C(=O)N(C)C)c2O)c(=O)c1=O)c1ccccc1 | 0.06 | 4 | – |
| CC[C@@H](Nc1c(Nc2ccc(-c3ccccc3)c(C(=O)N(C)C)c2O)c(=O)c1=O)c1ccccc1 | – | 17 | – |
| CC[C@@H](Nc1c(Nc2cccc(C(N)=O)c2O)c(=O)c1=O)c1ccccc1 | 2.2 | 25 | – |
| CC[C@@H](Nc1c(Nc2cc(C#N)cc(C(=O)N(C)C)c2O)c(=O)c1=O)c1ccccc1 | – | 3 | – |
| CC[C@@H](Nc1c(N2CCOc3c(C(=O)N(C)C)cccc32)c(=O)c1=O)c1ccccc1 | – | > 270 | – |

| Structure (SMILES) | AUC [1] [µM·h] | Ki [2] [nM] | Ki [3] [nM] |
| --- | --- | --- | --- |
| CC[C@@H](Nc1c(Nc2cccc(C(=O)N(C)C(C)C)c2O)c(=O)c1=O)c1ccccc1 | 1.4 | 11 | 123 |
| CC[C@@H](Nc1c(Nc2cccc(C(=O)N3CC(O)C3)c2O)c(=O)c1=O)c1ccccc1 | 0.5 | 20 | – |
| CC[C@@H](Nc1c(Nc2cccc(C(=O)N3CCN(C)CC3)c2O)c(=O)c1=O)c1ccccc1 | – | 12 | 41 |
| CC[C@@H](Nc1c(Nc2cccc(C(=O)O)c2O)c(=O)c1=O)c1ccc(C)o1 | – | 12 | – |
| CC[C@@H](Nc1c(Nc2cccc(C(=O)N3CCN(C(C)=O)CC3)c2O)c(=O)c1=O)c1ccccc1 | – | 27 | – |
| CC[C@@H](Nc1c(Nc2c(C)ccc(C(=O)N(C)C)c2O)c(=O)c1=O)c1ccccc1 | 2.3 | 4.5 | 381 |
| CC[C@@H](Nc1c(Nc2cc(Br)cc(C(=O)N(C)C)c2O)c(=O)c1=O)c1cccs1 | 1.4 | 61 | 2070 |
| CC[C@@H](Nc1c(Nc2cccc(C(=O)NC(C)C)c2O)c(=O)c1=O)c1ccccc1 | – | 219 | – |
| CC[C@@H](Nc1c(Nc2cccc(C(=O)NC)c2O)c(=O)c1=O)c1ccccc1 | 0.4 | 28 | – |
| CC[C@@H](Nc1c(Nc2cc(C)cc(C(=O)N(C)C)c2O)c(=O)c1=O)c1ccccc1 | – | 203 | – |
| CC[C@@H](Nc1c(Nc2cccc(C(=O)N3CCOCC3)c2O)c(=O)c1=O)c1ccccc1 | – | 10 | – |
| CC[C@@H](Nc1c(Nc2cc(C#N)cc(C(=O)N(C)C)c2O)c(=O)c1=O)c1cccs1 | – | 5 | 54 |
| CC[C@@H](Nc1c(Nc2cccc(C(=O)N3CCCC3)c2O)c(=O)c1=O)c1ccccc1 | 1 | 9 | – |
| CC[C@@H](Nc1c(Nc2cccc(C(=O)NC3CC3)c2O)c(=O)c1=O)c1ccccc1 | – | 34 | – |
| CC[C@@H](Nc1c(Nc2cccc(C(=O)N(C)C)c2OC)c(=O)c1=O)c1ccccc1 | – | > 270 | – |
| CC[C@H](c1ccccc1)N(C)c1c(N(C)c2cccc(C(=O)N(C)C)c2O)c(=O)c1=O | – | > 270 | – |
